Measured values as given in US20260007692A1, “BIORESORBABLE ORGANIC BIOELECTRONICS” (priority 2023, published 2026).

What was measured:
[1] = test system: normal human lung fibroblast (HLF-1) cells; experiment: Calcein-AM cytotoxicity assessment in normal lung fibroblast; type: cell-based; settings: 24 hrs
Protocol: Study of the in vitro toxicity of ETE-PC in normal human lung fibroblast (HLF-1) cells. Briefly, HLF-1 cells were seeded in 96 well plate at a density of 2×10^4 cell per well and grown for 24 hrs. Later cells were treated with various concentrations of ETE-PC (5-1000 μg/ml) for 24 hrs. Post treatment, 200 μl live cell staining dye calcein-AM (Thermo Fisher, Invitrogen, Cat no. C3100MP) (2 μM in PR free DMEM) was added to wells and incubated for 30 min followed by examination of live cells using fluorescence cell imaging (Spark Cyto cell imager, Tecan).

[2] = test system: HLF-1; experiment: MTT cell viability assay (limiting-dilution toxicity); type: cell-based, human; settings: 1 day exposure, up to 1 mg mL^−1
Protocol: The MTT cell viability assay was conducted to determine in vitro toxicity of A5, ETE-S and ETE-PC. Briefly, HLF-1 (2×10^4 cells well-1) were plated in a 96-well flat-bottom microplate and grown for 24 h. Cells were treated with A5, ETE-S, or ETE-PC (0-1000 μg ml^−1) for 24 h. Post-treatment, 200 μL of MTT (0.5 mg mL^−1) was added into each well and incubated at 37° C. for 4 h. After incubation, 200 μL of isopropanol was added to dissolve formazan crystals. The optical density of formazan solution, as a measure of live cells, was obtained using a microplate reader at 570 nm (Spark Cyto, Tecan). The formazan signal (live cell count) was normalized to the control samples not exposed to A5 or ETE-Rs. 3 biological and 3 technical replicates were used for each setting. Each well contained up to 200 μg of our compound (1 mg mL^−1, 200 μL) which can be compared to a typical in vivo injection of 400 ng (40 mg mL^−1, 10 nL).

[3] = target: T1, horseradish peroxidase (HRP) (Armoracia rusticana, UniProt P00433); experiment: Enzymatic polymerization of ETE-PC with HRP and H2O2; type: biochemical; settings: ETE-PC 500 μg/ml, HRP 5 U/ml
T1 construct: purchased Merck, Sigma Aldrich P8375-25KU
T1 sequence (P00433 31-338 limits assumed): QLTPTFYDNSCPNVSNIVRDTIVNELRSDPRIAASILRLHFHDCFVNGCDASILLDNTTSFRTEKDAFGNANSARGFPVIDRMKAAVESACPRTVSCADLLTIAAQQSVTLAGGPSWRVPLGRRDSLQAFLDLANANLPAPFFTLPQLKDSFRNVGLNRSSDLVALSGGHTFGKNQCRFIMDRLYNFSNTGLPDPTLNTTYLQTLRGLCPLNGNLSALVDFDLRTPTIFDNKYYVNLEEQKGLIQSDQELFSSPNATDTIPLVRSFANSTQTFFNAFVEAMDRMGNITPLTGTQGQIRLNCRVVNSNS
Protocol: A solution of ETE-PC (500 μg/ml) was prepared in DPBS (Thermo Fischer, Gibco, Cat no. 14190-250) and mixed with different concentrations of hydrogen peroxide (H2O2) (0.001-0.01%) and horseradish peroxidase (HRP) (Merck, Sigma Aldrich, P8375-25KU) (5 U/ml in DPBS) was added. The polymerization was examined by the change of colour of the ETE-PC solution from slightly yellow to black and taking absorbance at 350 nm and 780 nm to detect polymerized and unpolymerized ETE-PC. The absorbance maxima of polymerized and unpolymerized ETE-PC were determined by a wavelength scan using UV-Vis spectrophotometry by Spark Cyto (Tecan) multi-mode plate reader.

[4] = Oxidation / redox potential of trimers and EDOT monomer; type: physicochemical

For `C[N+](C)(C)CCOP(=O)([O-])OCCc1cc(-c2scc3c2OCCO3)sc1-c1scc2c1OCCO2` [ETE-PC], the “morphology in phase contrast images” value ([1]; 5-1000 μg/ml) was “No detrimental change in morphology of HLF-1 cells was observed”, the “calcein-AM fluorescence vs control” value ([1]; even at 1000 μg/ml) was “no change the calcein-AM fluorescence” and the cell toxicity [2] was “neither A5 nor ETE-PC showed cell toxicity”. For the same molecule, the “H2O2 concentration at which polymerization by HRP got saturated” value [3] was 0.002% and the “concentration of H2O2 required for HRP mediated polymerization” value [3] was 0.001%.

For `O=S(=O)(O)CCCCOCCc1cc(-c2scc3c2OCCO3)sc1-c1scc2c1OCCO2` [ETE-S, sodium 4-(2-(2,5-bis(2,3-dihydrothieno[3,4-b][1,4]dioxin-5-yl)thiophene-3-yl)ethoxy)butane-1-sulfonate], the cell toxicity [2] was “some toxicity at high concentrations”.

`c1scc2c1OCCO2` [EDOT, 3,4-ethylenedioxythiophene] showed an oxidation potential [4] of 1.2 V.
